Data published in the supplement of paper PMC10307832.

Legend:
Assay in all cases: relative viability (nuclei count vs DMSO), 5 days (fraction); higher = more cells survive
Afatinib + Vorinostat = compound: CN(C)C/C=C/C(=O)Nc1cc2c(Nc3ccc(F)c(Cl)c3)ncnc2cc1O[C@H]1CCOC1 [Afatinib] + O=C(CCCCCCC(=O)Nc1ccccc1)NO [Vorinostat] (partner 1 µM)
Method in brief: (§1)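 Lung cancer cell lines in 1536-well plates were dosed by pin tool the day after seeding, either with one drug alone or with a fixed anchor-drug dose plus five library-drug doses (not always all listed) in √10 steps. After 5 days, cells were fixed and their nuclei stained in one step (final 0.05% Triton X-100, 1% formaldehyde, 1 ug/ml Hoechst), then counted on 4× images. Relative viability is the nuclei count in treated wells divided by that in vehicle wells. Values are medians of duplicate plates.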

Afatinib + Palbociclib = compound: CN(C)C/C=C/C(=O)Nc1cc2c(Nc3ccc(F)c(Cl)c3)ncnc2cc1O[C@H]1CCOC1 [Afatinib] + CC(=O)c1c(C)c2cnc(Nc3ccc(N4CCNCC4)cn3)nc2n(C2CCCC2)c1=O [Palbociclib] (partner 0.5 µM)
Method in brief: as §1

Afatinib + AZD7762 = compound: CN(C)C/C=C/C(=O)Nc1cc2c(Nc3ccc(F)c(Cl)c3)ncnc2cc1O[C@H]1CCOC1 [Afatinib] + NC(=O)Nc1cc(-c2cccc(F)c2)sc1C(=O)N[C@H]1CCCNC1 [AZD7762] (partner 0.2 µM)
Method in brief: as §1

Afatinib + Crizotinib = compound: CN(C)C/C=C/C(=O)Nc1cc2c(Nc3ccc(F)c(Cl)c3)ncnc2cc1O[C@H]1CCOC1 [Afatinib] + C[C@@H](Oc1cc(-c2cnn(C3CCNCC3)c2)cnc1N)c1c(Cl)ccc(F)c1Cl [Crizotinib] (partner 1 µM)
Method in brief: as §1

201T
relative viability (Afatinib + Vorinostat; first compound 0.005 µM): 0.936
relative viability (Afatinib + Vorinostat; first compound 0.01581 µM): 0.902
relative viability (Afatinib + Vorinostat; first compound 0.05 µM): 0.922
relative viability (Afatinib + Vorinostat; first compound 0.1581 µM): 0.783
relative viability (Afatinib + Vorinostat; first compound 0.5 µM): 0.957
relative viability (Afatinib + Palbociclib; first compound 0.005 µM): 0.336
relative viability (Afatinib + Palbociclib; first compound 0.01581 µM): 0.346
relative viability (Afatinib + Palbociclib; first compound 0.05 µM): 0.354
relative viability (Afatinib + Palbociclib; first compound 0.1581 µM): 0.358
relative viability (Afatinib + Palbociclib; first compound 0.5 µM): 0.339
relative viability (Afatinib + AZD7762; first compound 0.005 µM): 0.483
relative viability (Afatinib + AZD7762; first compound 0.01581 µM): 0.626
relative viability (Afatinib + AZD7762; first compound 0.05 µM): 0.599
relative viability (Afatinib + AZD7762; first compound 0.1581 µM): 0.667
relative viability (Afatinib + AZD7762; first compound 0.5 µM): 0.62
relative viability (Afatinib + Crizotinib; first compound 0.005 µM): 0.981
relative viability (Afatinib + Crizotinib; first compound 0.01581 µM): 0.863
relative viability (Afatinib + Crizotinib; first compound 0.05 µM): 0.959
relative viability (Afatinib + Crizotinib; first compound 0.1581 µM): 0.958
relative viability (Afatinib + Crizotinib; first compound 0.5 µM): 1

A-427
relative viability (Afatinib + Vorinostat; first compound 0.005 µM): 0.929
relative viability (Afatinib + Vorinostat; first compound 0.01581 µM): 0.89
relative viability (Afatinib + Vorinostat; first compound 0.05 µM): 0.848
relative viability (Afatinib + Vorinostat; first compound 0.1581 µM): 0.833
relative viability (Afatinib + Vorinostat; first compound 0.5 µM): 0.908
relative viability (Afatinib + Palbociclib; first compound 0.005 µM): 0.523
relative viability (Afatinib + Palbociclib; first compound 0.01581 µM): 0.526
relative viability (Afatinib + Palbociclib; first compound 0.05 µM): 0.537
relative viability (Afatinib + Palbociclib; first compound 0.1581 µM): 0.483
relative viability (Afatinib + Palbociclib; first compound 0.5 µM): 0.505
relative viability (Afatinib + AZD7762; first compound 0.005 µM): 0.587
relative viability (Afatinib + AZD7762; first compound 0.01581 µM): 0.705
relative viability (Afatinib + AZD7762; first compound 0.05 µM): 0.823
relative viability (Afatinib + AZD7762; first compound 0.1581 µM): 0.676
relative viability (Afatinib + AZD7762; first compound 0.5 µM): 0.698
relative viability (Afatinib + Crizotinib; first compound 0.005 µM): 0.999
relative viability (Afatinib + Crizotinib; first compound 0.01581 µM): 0.963
relative viability (Afatinib + Crizotinib; first compound 0.05 µM): 1.04
relative viability (Afatinib + Crizotinib; first compound 0.1581 µM): 0.845
relative viability (Afatinib + Crizotinib; first compound 0.5 µM): 0.855

ABC-1
relative viability (Afatinib + Vorinostat; first compound 0.005 µM): 1.47
relative viability (Afatinib + Vorinostat; first compound 0.05 µM): 1.13
relative viability (Afatinib + Vorinostat; first compound 0.1581 µM): 1.24
relative viability (Afatinib + Vorinostat; first compound 0.5 µM): 1.08
relative viability (Afatinib + Palbociclib; first compound 0.005 µM): 0.559
relative viability (Afatinib + Palbociclib; first compound 0.05 µM): 0.576
relative viability (Afatinib + Palbociclib; first compound 0.1581 µM): 0.572
relative viability (Afatinib + Palbociclib; first compound 0.5 µM): 0.561
relative viability (Afatinib + AZD7762; first compound 0.005 µM): 0.631
relative viability (Afatinib + AZD7762; first compound 0.01581 µM): 0.717
relative viability (Afatinib + AZD7762; first compound 0.05 µM): 0.666
relative viability (Afatinib + AZD7762; first compound 0.1581 µM): 0.662
relative viability (Afatinib + AZD7762; first compound 0.5 µM): 1.09
relative viability (Afatinib + Crizotinib; first compound 0.005 µM): 1.29
relative viability (Afatinib + Crizotinib; first compound 0.01581 µM): 0.98
relative viability (Afatinib + Crizotinib; first compound 0.05 µM): 1.3
relative viability (Afatinib + Crizotinib; first compound 0.1581 µM): 0.885
relative viability (Afatinib + Crizotinib; first compound 0.5 µM): 1.13

BEN
relative viability (Afatinib + Vorinostat; first compound 0.005 µM): 0.588
relative viability (Afatinib + Vorinostat; first compound 0.01581 µM): 0.564
relative viability (Afatinib + Vorinostat; first compound 0.05 µM): 0.559
relative viability (Afatinib + Vorinostat; first compound 0.1581 µM): 0.557
relative viability (Afatinib + Vorinostat; first compound 0.5 µM): 0.574
relative viability (Afatinib + Palbociclib; first compound 0.005 µM): 0.447
relative viability (Afatinib + Palbociclib; first compound 0.01581 µM): 0.565
relative viability (Afatinib + Palbociclib; first compound 0.05 µM): 0.535
relative viability (Afatinib + Palbociclib; first compound 0.1581 µM): 0.455
relative viability (Afatinib + Palbociclib; first compound 0.5 µM): 0.484
relative viability (Afatinib + AZD7762; first compound 0.005 µM): 0.618
relative viability (Afatinib + AZD7762; first compound 0.01581 µM): 0.704
relative viability (Afatinib + AZD7762; first compound 0.05 µM): 0.648
relative viability (Afatinib + AZD7762; first compound 0.1581 µM): 0.642
relative viability (Afatinib + AZD7762; first compound 0.5 µM): 0.636
relative viability (Afatinib + Crizotinib; first compound 0.005 µM): 0.929
relative viability (Afatinib + Crizotinib; first compound 0.01581 µM): 0.941
relative viability (Afatinib + Crizotinib; first compound 0.05 µM): 1.02
relative viability (Afatinib + Crizotinib; first compound 0.1581 µM): 0.908
relative viability (Afatinib + Crizotinib; first compound 0.5 µM): 0.916

CAL-12T
relative viability (Afatinib + Vorinostat; first compound 0.005 µM): 0.727
relative viability (Afatinib + Vorinostat; first compound 0.01581 µM): 0.647
relative viability (Afatinib + Vorinostat; first compound 0.05 µM): 0.552
relative viability (Afatinib + Vorinostat; first compound 0.1581 µM): 0.364
relative viability (Afatinib + Vorinostat; first compound 0.5 µM): 0.396
relative viability (Afatinib + Palbociclib; first compound 0.005 µM): 0.51
relative viability (Afatinib + Palbociclib; first compound 0.01581 µM): 0.209
relative viability (Afatinib + Palbociclib; first compound 0.05 µM): 0.213
relative viability (Afatinib + Palbociclib; first compound 0.1581 µM): 0.172
relative viability (Afatinib + Palbociclib; first compound 0.5 µM): 0.161
relative viability (Afatinib + AZD7762; first compound 0.005 µM): 0.631
relative viability (Afatinib + AZD7762; first compound 0.01581 µM): 0.594
relative viability (Afatinib + AZD7762; first compound 0.05 µM): 0.546
relative viability (Afatinib + AZD7762; first compound 0.1581 µM): 0.491
relative viability (Afatinib + AZD7762; first compound 0.5 µM): 0.505
relative viability (Afatinib + Crizotinib; first compound 0.005 µM): 1.06
relative viability (Afatinib + Crizotinib; first compound 0.01581 µM): 0.629
relative viability (Afatinib + Crizotinib; first compound 0.05 µM): 0.64
relative viability (Afatinib + Crizotinib; first compound 0.5 µM): 0.357

ChaGo-K-1
relative viability (Afatinib + Vorinostat; first compound 0.005 µM): 0.81
relative viability (Afatinib + Vorinostat; first compound 0.01581 µM): 0.777
relative viability (Afatinib + Vorinostat; first compound 0.05 µM): 0.789
relative viability (Afatinib + Vorinostat; first compound 0.1581 µM): 0.754
relative viability (Afatinib + Vorinostat; first compound 0.5 µM): 0.695
relative viability (Afatinib + Palbociclib; first compound 0.005 µM): 0.932
relative viability (Afatinib + Palbociclib; first compound 0.01581 µM): 0.977
relative viability (Afatinib + Palbociclib; first compound 0.05 µM): 0.977
relative viability (Afatinib + Palbociclib; first compound 0.1581 µM): 0.864
relative viability (Afatinib + Palbociclib; first compound 0.5 µM): 0.96
relative viability (Afatinib + AZD7762; first compound 0.005 µM): 0.801
relative viability (Afatinib + AZD7762; first compound 0.01581 µM): 0.868
relative viability (Afatinib + AZD7762; first compound 0.05 µM): 0.827
relative viability (Afatinib + AZD7762; first compound 0.1581 µM): 0.871
relative viability (Afatinib + AZD7762; first compound 0.5 µM): 0.827
relative viability (Afatinib + Crizotinib; first compound 0.005 µM): 1.27
relative viability (Afatinib + Crizotinib; first compound 0.01581 µM): 1.14
relative viability (Afatinib + Crizotinib; first compound 0.05 µM): 1.17
relative viability (Afatinib + Crizotinib; first compound 0.1581 µM): 1.16
relative viability (Afatinib + Crizotinib; first compound 0.5 µM): 1.17

EKVX
relative viability (Afatinib + Vorinostat; first compound 0.005 µM): 0.588
relative viability (Afatinib + Vorinostat; first compound 0.01581 µM): 0.385
relative viability (Afatinib + Vorinostat; first compound 0.05 µM): 0.284
relative viability (Afatinib + Vorinostat; first compound 0.1581 µM): 0.31
relative viability (Afatinib + Vorinostat; first compound 0.5 µM): 0.276
relative viability (Afatinib + Palbociclib; first compound 0.005 µM): 0.317
relative viability (Afatinib + Palbociclib; first compound 0.01581 µM): 0.265
relative viability (Afatinib + Palbociclib; first compound 0.05 µM): 0.188
relative viability (Afatinib + Palbociclib; first compound 0.1581 µM): 0.147
relative viability (Afatinib + Palbociclib; first compound 0.5 µM): 0.141
relative viability (Afatinib + AZD7762; first compound 0.005 µM): 0.638
relative viability (Afatinib + AZD7762; first compound 0.01581 µM): 0.368
relative viability (Afatinib + AZD7762; first compound 0.05 µM): 0.373
relative viability (Afatinib + AZD7762; first compound 0.1581 µM): 0.315
relative viability (Afatinib + AZD7762; first compound 0.5 µM): 0.865
relative viability (Afatinib + Crizotinib; first compound 0.005 µM): 0.892
relative viability (Afatinib + Crizotinib; first compound 0.01581 µM): 0.708
relative viability (Afatinib + Crizotinib; first compound 0.05 µM): 0.551
relative viability (Afatinib + Crizotinib; first compound 0.1581 µM): 0.268
relative viability (Afatinib + Crizotinib; first compound 0.5 µM): 0.159

EMC-BAC-2
relative viability (Afatinib + Vorinostat; first compound 0.005 µM): 0.558
relative viability (Afatinib + Vorinostat; first compound 0.01581 µM): 0.236
relative viability (Afatinib + Vorinostat; first compound 0.05 µM): 0.596
relative viability (Afatinib + Vorinostat; first compound 0.1581 µM): 0.465
relative viability (Afatinib + Vorinostat; first compound 0.5 µM): 0.438
relative viability (Afatinib + Palbociclib; first compound 0.005 µM): 0.539
relative viability (Afatinib + Palbociclib; first compound 0.01581 µM): 0.531
relative viability (Afatinib + Palbociclib; first compound 0.05 µM): 0.551
relative viability (Afatinib + Palbociclib; first compound 0.1581 µM): 0.498
relative viability (Afatinib + Palbociclib; first compound 0.5 µM): 0.519
relative viability (Afatinib + AZD7762; first compound 0.005 µM): 1.07
relative viability (Afatinib + AZD7762; first compound 0.01581 µM): 1.17
relative viability (Afatinib + AZD7762; first compound 0.05 µM): 1.14
relative viability (Afatinib + AZD7762; first compound 0.1581 µM): 1.06
relative viability (Afatinib + AZD7762; first compound 0.5 µM): 1.19
relative viability (Afatinib + Crizotinib; first compound 0.005 µM): 0.816
relative viability (Afatinib + Crizotinib; first compound 0.01581 µM): 0.731
relative viability (Afatinib + Crizotinib; first compound 0.05 µM): 0.698
relative viability (Afatinib + Crizotinib; first compound 0.1581 µM): 0.693
relative viability (Afatinib + Crizotinib; first compound 0.5 µM): 0.654
